According to patent publication US12121504B1, “Method for producing 1,3-diolein from biomass” (KING SAUD UNIVERSITY, priority 2024, dated 2024):

System: C. auris strain
Assay type: cell-based, Candida auris
Conditions: C. auris strain used in the anti-fungal test
Protocol: The biological activity of compound 1 (linoleic acid) as an antifungal agent against fluconazole- and caspofungin-resistant C. auris was evaluated using disk diffusion assay for determining the inhibition zone (mm) and two-fold serial microdilution assay for determining the minimal inhibitory concentration (MIC) (mg/mL) according to Dilika et al., (2000) and Zheng et al., (2005). The hexadecanoic acid and isopropyl myristate were prepared (both compounds (data not shown) were used in this stage as a negative control).

CC[C@H](C)C[C@H](C)CCCCCCCCC(=O)N[C@H]1C[C@@H](O)[C@@H](NCCN)NC(=O)[C@@H]2[C@@H](O)CCN2C(=O)[C@H]([C@H](O)CCN)NC(=O)[C@H]([C@H](O)[C@@H](O)c2ccc(O)cc2)NC(=O)[C@@H]2C[C@@H](O)CN2C(=O)[C@H]([C@@H](C)O)NC1=O [caspofungin]
susceptibility of C. auris strain to standard anti-fungal drug: resistant

OC(Cn1cncn1)(Cn1cncn1)c1ccc(F)cc1F [fluconazole]
susceptibility of C. auris strain to standard anti-fungal drug: resistant
